ChEMBL document CHEMBL6114980, “Single or double lipid-modified ultra-short antimicrobial peptides for treating infections caused by resistant bacteria” (Eur J Med Chem, 2025)

Experiments:
[1] = Acute toxicity in male BALB/c mouse assessed appearance of aberrant alveolar morphology at 20 to 30 mg/kg, ip measured after 7 days by H and E staining based analysis; assay type: organism-based; conditions: in vivo, 168 h, dose 20-30 mg/kg, time 7 day
[2] = Acute toxicity in male BALB/c mouse assessed infiltration of inflammatory cells in spleen at 20 to 30 mg/kg, ip measured after 7 days by H and E staining based analysis; assay type: organism-based; conditions: in vivo, 168 h, dose 20-30 mg/kg, time 7 day
[3] = Acute toxicity in male BALB/c mouse assessed appearance of augmented alveolar interstitial space at 20 to 30 mg/kg, ip measured after 7 days by H and E staining based analysis; assay type: organism-based; conditions: in vivo, 168 h, dose 20-30 mg/kg, time 7 day
[4] = Acute toxicity in male BALB/c mouse assessed effect on liver at 20 to 30 mg/kg, ip measured after 7 days by H and E staining based analysis; assay type: organism-based; conditions: in vivo, 168 h, dose 20-30 mg/kg, time 7 day
[5] = Stability in mouse serum assessed as half life measured after 1 hr by HPLC analysis; assay type: ADME, cell-free
[6] = Acute toxicity in male BALB/c mouse assessed lethal dose administered as ip dose measured for 7 days; assay type: organism-based; conditions: in vivo, time 7 day
[7] = Acute toxicity in male BALB/c mouse assessed infiltration of inflammatory cells at 20 to 30 mg/kg, ip measured after 7 days by H and E staining based analysis; assay type: organism-based; conditions: in vivo, 168 h, dose 20-30 mg/kg, time 7 day
[8] = Stability in mouse serum assessed as retention time measured after 1 hr by RP-HPLC analysis; assay type: ADME, cell-free
[9] = Acute toxicity in male BALB/c mouse assessed infiltration of inflammatory cells in kidney at 20 to 30 mg/kg, ip measured after 7 days by H and E staining based analysis; assay type: organism-based; conditions: in vivo, 168 h, dose 20-30 mg/kg, time 7 day
[10] = Acute toxicity in male BALB/c mouse assessed appearance of lung congestion at 20 to 30 mg/kg, ip measured after 7 days by H and E staining based analysis; assay type: organism-based; conditions: in vivo, 168 h, dose 20-30 mg/kg, time 7 day
[11] = Acute toxicity in male BALB/c mouse assessed effect on lung at 20 to 30 mg/kg, ip measured after 7 days by H and E staining based analysis; assay type: organism-based; conditions: in vivo, 168 h, dose 20-30 mg/kg, time 7 day

Which Activity [1] does the source give for `CC(C)CCCCC(=O)N[C@@H](CCN)C(=O)N[C@H](C(=O)N[C@@H](CCN)C(=O)N[C@H]1CCNC(=O)[C@H]([C@@H](C)O)NC(=O)[C@H](CCN)NC(=O)[C@H](CCN)NC(=O)[C@H](CC(C)C)NC(=O)[C@@H](Cc2ccccc2)NC(=O)[C@H](CCN)NC1=O)[C@@H](C)O.CC[C@H](C)CCCCC(=O)N[C@@H](CCN)C(=O)N[C@H](C(=O)N[C@@H](CCN)C(=O)N[C@H]1CCNC(=O)[C@H]([C@@H](C)O)NC(=O)[C@H](CCN)NC(=O)[C@H](CCN)NC(=O)[C@H](CC(C)C)NC(=O)[C@@H](Cc2ccccc2)NC(=O)[C@H](CCN)NC1=O)[C@@H](C)O` here?
Its Activity is “Toxic”.

What about the Activity [2] of the same compound?
Its Activity is “Non-toxic”.

And the Activity [3]?
Its Activity is “Toxic”.

And the Activity [4]?
The Activity was “Toxic”.

And the half-life [5]?
Its half-life is 10.5 h.

And the LD50 at 168 h [6]?
The LD50 at 168 h was 23.6 mg/kg.

What about the Activity [7] of the same compound?
Its Activity is “Toxic”.

What about the Retention_time [8] of the same compound?
The Retention_time was 13.545 min.

And the Activity [9]?
The Activity was “Non-toxic”.

And the Activity [10]?
The Activity was “Toxic”.

And the Activity [11]?
The Activity was “Toxic”.
